These are literature values, as cited in paper PMC10574767, “Extractives from Artemisia afra with Anti-Bacterial and Anti-Fungal Properties” (Plants, 2023).

Converted amounts (≈) assume the structure as drawn.

Data set [1] concerns C. albicans. On the set-up: method as in ref 35 = [35]; 35. Naika H.R. Krishna V. Harish B.G. Khadeer Ahamed B.M. Mahadevan K.M. Antimicrobial Activity of Bioactive Constituents Isolated from the Leaves of Naravelia zeylanica (L.) DC Int. J. Res. Pharm. Bi. As to conditions: cited from earlier work.
Data set [2] deals with Staphylococcus aureus. Also on record: method as in ref 36 = [36]; 36. Koay Y.C. Wong K.C. Hasnah O. Ibrahim E.M.S. Mohammad Z.A. Chemical constituents and biological activities of Strobilanthes crispus L. Rec. Nat. Prod. 2013 7 59 64. As to conditions: cited from earlier work.
Data set [3] deals with Aspergillus niger, Aspergillus flavus, Rhizoctonia phaseoli, and Penicillium chrysogenum. Also on record: method as in ref 38 = [38]; 38. ur Rahman U. Durrani S. Ubaidullah S.A. ur Rahman S. Anti-pyretic activity of taraxerol acetate KJMS 2016 9 165. As to conditions: 1 mg/disc; cited from earlier work.
Data set [4] deals with T. rubrum. Also on record: method as in PMID 19844829, PMID 35453556. As to conditions: cited from earlier work.
Data set [5] relates to T. mentagrophytes. Also on record: method as in PMID 19844829, PMID 35453556. As to conditions: cited from earlier work.
Data set [6] has as its system Candida albicans. On the set-up: method as in PMID 19844829, PMID 35453556. As to conditions: cited from earlier work.
The subject of data set [7] is Staphylococcus aureus, Bacillus thuringiensis, Escherichia coli, Enterobacter cloacae, and Klebsiella pneumoniae. Also on record: method as in PMID 12120818. As to conditions: 1 mg of compound; cited from earlier work.
Data set [8] concerns A431 squamous carcinoma cell line. Also on record: method as in PMID 35453556, PMID 21294076. As to conditions: cited from earlier work.
Data set [9] relates to HeLa. Also on record: method as in PMID 35453556, PMID 21294076. As to conditions: cited from earlier work.
Data set [10] concerns MCF-7. Also on record: method as in PMID 35453556, PMID 21294076. As to conditions: cited from earlier work.

In the case of `CC1(C)CC[C@]2(C)CC=C3[C@]4(C)CC[C@H]5C(C)(C)[C@@H](O)CC[C@]5(C)[C@H]4CC[C@@]3(C)[C@@H]2C1` [Compound 3β-Taraxerol, 3β-taraxerol], the “Activity against C. albicans” value in [1] was “no activity”. For the same molecule, in data set [2], the “MIC Staphylococcus aureus” value is 15.6 mg/L (≈ 36.6 µM). Further, the “Anti-fungal activity against four fungi” value in data set [3] was “weak anti-fungal activities”. Besides, the “MIC T. rubrum” value in data set [4] was 12.5 mg/L (≈ 29.3 µM). For the same molecule, in data set [5], the “MIC T. mentagrophytes” value was 12.5 mg/L (≈ 29.3 µM). For the same molecule, the “MIC Candida albicans” value in data set [6] is 25 mg/L (≈ 58.6 µM). Further, in data set [7], the “Antimicrobial activity against two Gram-positive and three Gram-negative bacteria” value was “moderate antimicrobial activity”. Besides, the “Cytotoxicity A431” value in data set [8] was 2.65 µg/mL. Besides, the “Cytotoxicity HeLa” value in [9] is “inactive”. Also, in data set [10], the “Cytotoxicity MCF-7” value was “inactive”.
